Here are results for six molecules from ChEMBL document CHEMBL1201862, “PubChem BioAssay data set” (2004).

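Following 48 hours of exposure in 96-well plates, responses at five concentrations were used to interpolate endpoints linearly. GI50: concentration for 50% inhibition of growth.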 Active and inactive are the calls of the source. Cut-off read from the data, not from the text of the source: active = GI50 up to about 1.1 µM and inactive = higher.

Some test systems named below: HCT-15; SF-295; SF-539; TK-10; HT-29; CAKI-1; SK-OV-3; 786-0; RXF 393; CCRF-CEM; UO-31; A498; Hs-578T; RPMI-8226; SNB-19; U-251; HCC 2998; BT-549; MOLT-4; SNB-75.
What all share (assay): DTP human tumour cell line panel, 48 h

Broadly, the GI50 is the concentration at which growth is held to half of that of the control. As for `CC1(C)Oc2ccc(NC(=O)CCC(N)C(=O)O)cc2O1` (stereo not given), the GI50 in the experiment with HCT-15 was above 100 µM; in the experiment on SF-295 it was > 100 µM (inactive); in the experiment with SF-539, > 100 µM (inactive); in the experiment with TK-10, > 100 µM (inactive); with HT-29, > 100 µM (inactive); in the experiment on CAKI-1, > 100 µM (inactive). Besides, the GI50 in the experiment with SK-OV-3, with 786-0, in the experiment on RXF 393, in the experiment on CCRF-CEM, in the experiment on UO-31 and in the experiment on A498 was > 100 µM (inactive) each time. Also, the GI50 in the experiment on Hs-578T, in the experiment on RPMI-8226, in the experiment with SNB-19, with U-251, with HCC 2998 and in the experiment with BT-549 was > 100 µM (inactive) in each case. The GI50 in the experiment with MOLT-4 and in the experiment on SNB-75 was > 100 µM (inactive) throughout.

For the molecule `COC(=O)C(Cc1ccccc1)C(=O)NC(CNC(=O)OCc1ccccc1)C(=O)OCc1ccccc1` (stereo not given), the GI50 with HCT-15 is 45.7 µM; in the experiment with SF-295 it was 47.1 µM (inactive); with SF-539, 40.6 µM (inactive); in the experiment with TK-10, 33.7 µM (inactive); with HT-29 it was 29.3 µM (inactive); in the experiment on CAKI-1 it was 36.8 µM (inactive). For the same molecule, the GI50 in the experiment on SK-OV-3 is > 100 µM (inactive); with 786-0, 25.9 µM (inactive); in the experiment on RXF 393, 21.8 µM (inactive); in the experiment on CCRF-CEM it was 14.7 µM (inactive); in the experiment on UO-31, 28.6 µM (inactive); in the experiment with A498 it was > 47.8 µM (inactive). In addition, the GI50 with Hs-578T is > 63.5 µM (inactive); with RPMI-8226, 21.4 µM (inactive); with SNB-19, 86.3 µM (inactive); with U-251, 49.1 µM (inactive); in the experiment with HCC 2998, 30.8 µM (inactive); in the experiment on BT-549, 53.3 µM (inactive). Further, the GI50 in the experiment on MOLT-4 was 11.8 µM (inactive); with SNB-75, 23.3 µM (inactive).

On to `O=c1[nH]c(C23CC4CC(CC(C4)C2)C3)cc2c1c(=O)oc1ccccc12`, for which the GI50 was 13.8 µM with HCT-15; 3.71 µM (inactive) with SF-295; 4.53 µM (inactive) in the experiment with SF-539; 3.43 µM (inactive) in the experiment with TK-10; 3.52 µM (inactive) in the experiment on HT-29; 1.86 µM (inactive) with CAKI-1. In addition, the GI50 is 3.25 µM (inactive) in the experiment on SK-OV-3; 1.61 µM (inactive) with 786-0; 2.35 µM (inactive) in the experiment with RXF 393; 12.5 µM (inactive) in the experiment with CCRF-CEM; 1.61 µM (inactive) with UO-31; 2.26 µM (inactive) in the experiment with A498. The GI50 with Hs-578T is 1.1 µM (active); in the experiment on RPMI-8226 it was 3.08 µM (inactive); in the experiment with SNB-19, 4.98 µM (inactive); in the experiment with U-251 it was 2.53 µM (inactive); in the experiment with HCC 2998, 5.31 µM (inactive); in the experiment with BT-549, 11.2 µM (inactive). Also, the GI50 in the experiment with MOLT-4 was 10.5 µM (inactive); in the experiment on SNB-75, 2.53 µM (inactive).

With `C=C1C(=O)OC2CC(C)C3CC(O)OC(OCC)C3(C)CC12` (stereo not given), the 50% growth inhibitory concentration (GI50) was 8.38 µM in the experiment with HCT-15; 26.6 µM (inactive) with SF-295; 18.1 µM (inactive) with SF-539; 22 µM (inactive) in the experiment with TK-10; 17.8 µM (inactive) with HT-29; 17.8 µM (inactive) in the experiment with CAKI-1. The GI50 with SK-OV-3 was 27.5 µM (inactive); in the experiment with 786-0 it was 10.2 µM (inactive); in the experiment with RXF 393 it was 14.8 µM (inactive); in the experiment on CCRF-CEM, 6.46 µM (inactive); in the experiment on UO-31, 22.3 µM (inactive); in the experiment on A498 it was 28.1 µM (inactive). The GI50 in the experiment with Hs-578T was 23.1 µM (inactive); in the experiment on RPMI-8226 it was 11.4 µM (inactive); in the experiment on SNB-19, 26 µM (inactive); in the experiment on U-251, 17.1 µM (inactive); in the experiment on HCC 2998 it was 16.8 µM (inactive); in the experiment on BT-549 it was > 41.8 µM (inactive). In addition, the results for the GI50 with MOLT-4 and in the experiment on SNB-75 were 16.7 µM (inactive) and 15.5 µM (inactive), respectively.

Regarding `C[N+](C)([O-])CCCNc1c2ccccc2nc2cccc([N+](=O)[O-])c12`, the GI50 is 0.457 µM with HCT-15; 0.592 µM (active) in the experiment on SF-295; 1.07 µM (active) in the experiment with SF-539; 0.982 µM (active) with TK-10; 0.179 µM (active) in the experiment on HT-29; 1.72 µM (inactive) with CAKI-1. Also, the GI50 was 0.631 µM (active) in the experiment on SK-OV-3; 0.166 µM (active) in the experiment with 786-0; 0.163 µM (active) in the experiment on RXF 393; 0.249 µM (active) in the experiment with CCRF-CEM; 1.41 µM (inactive) in the experiment with UO-31; 0.164 µM (active) in the experiment on A498. The GI50 is 0.938 µM (active) with Hs-578T; 0.313 µM (active) in the experiment with RPMI-8226; 0.409 µM (active) in the experiment on SNB-19; 0.305 µM (active) with U-251; 0.164 µM (active) in the experiment with HCC 2998; 0.703 µM (active) in the experiment on BT-549. Moreover, the figures for the GI50 with MOLT-4 and with SNB-75 were 0.142 µM (active) and 0.456 µM (active), respectively.

`COc1ccc(C2C3=C(COC3=O)OC(C)(C)Oc3cc4c(cc32)OCO4)cc1OC` (stereo not given): the GI50 in the experiment with HCT-15 was 38.5 µM; in the experiment on SF-295 it was 29 µM (inactive); in the experiment on SF-539, 29.1 µM (inactive); in the experiment on TK-10, 50.1 µM (inactive); in the experiment with HT-29 it was 39.4 µM (inactive); with CAKI-1 it was 43.6 µM (inactive). The GI50 was 50.5 µM (inactive) with SK-OV-3; 41.9 µM (inactive) with 786-0; 31.5 µM (inactive) in the experiment with RXF 393; 37.1 µM (inactive) in the experiment on CCRF-CEM; 47.9 µM (inactive) with UO-31; 23.1 µM (inactive) in the experiment with A498. Further, the GI50 in the experiment with Hs-578T was 31.6 µM (inactive); in the experiment with RPMI-8226, 41.6 µM (inactive); in the experiment on SNB-19, 44.4 µM (inactive); in the experiment with U-251 it was 39.1 µM (inactive); in the experiment with HCC 2998 it was 78 µM (inactive); in the experiment on BT-549, 32.3 µM (inactive). In addition, the GI50 with MOLT-4 is 34.8 µM (inactive); in the experiment with SNB-75, 13.2 µM (inactive).
